Source: patent US7053194B2, “Compositions and methods for p53-mediated repression of gene expression” (Fox Chase Cancer Center, priority 1999, dated 2006)
Square brackets hold non-standard residues; d marks the D form. Peptide text beside a SMILES is read from it. Nle = CCCC[C@H](N)C(=O)O

How the values were obtained:
MCF-7 cells [1] = test: Immunoprecipitation-western analysis of p53 and p53-mSin3a complexes; assay type: cell-based, human; conditions: MCF-7, 50 uM ALLN, 2 hours
Experimental: (§1) Sub-confluent cultures of MCF 7 and A2780 cells were treated with 100 nM trichostatin A (TSA, Sigma)for 2 hours, followed by incubation with 0.5 ug/ml adriamycin (doxorubicin, Sigma) for the indicated timepoints. Va15 cells grown at 39 degrees were treated with 100 nM TSA for two hours, followed by temperature shift to 32 degrees for 12 hours. p53 induction was monitored by western analysis of 100 ug protein as described (Murphy et al., Genes & Devel. 10:2971–2980, 1996), using 0.1ug/ml DO-1 (Ab-6, Calbiochem) or 421 (Ab-1, Calbiochem). MDM2 induction was monitored using the monoclonal antibody 2A10, kindly provided by Arnold Levine (Rockefeller University). For UV treatments, cells were irradiated with 4 J/m2 of UV-C with a Spectroline X series ultraviolet lamp, and output was monitored with a traceable UV light meter (Fisher Scientific). For ALLN treatment, MCF-7 cells were treated with 50 uM ALLN (calpain I inhibitor, Sigma) made in DMSO (dimethyl sulfoxide, Sigma) or with DMSO alone for 2 hours prior to harvesting.
Sub-confluent cultures of cells were harvested and lysed in NP-40 buffer supplemented with protease inhibitors (1 mM PMSF, 10 ug/ml pepstatin A, 10 ug/ml aprotinin, and 5ug/ml leupeptin). Protein concentrations were determined by the method of Bradford (BioRad). Equal ug amounts of protein (between 2.0 and 3.0 mg) were immunoprecipitated with 1 ug of each antibody, except for Va15 immunoprecipitations, which used 1000 ug protein, as described (Murphy et al., Genes & Devel. 10:2971–2980, 1996). For p300, antibody N15 (Santa Cruz Biotechnology) and AB-1 (Calbiochem) yielded similar results. Each IP was washed twice in NP-40 buffer (Wu, et al., Genes & Devel. 7:1126–1132, 1993), followed by 2 washes in RIPA buffer (50 mM Tris pH 7.4/150 mM NaCl/1% Triton X 100/0.1% SDSI 1% Na deoxycholate). Immunoprecipitations were run on 7.5–10% SDS-PAGE gels and transferred overnight onto Immuno-Blot PVDF membrane (BioRad). […]
These complexes persisted under stringent washing conditions (RIPA buffer washes, see Materials and Methods), and were not present using control antisera (rabbit IgG, lane 1). […] We next analyzed the p53-mSin3a interaction following post-translational stabilization of p53 mediated by DNA damaging agents. […]
We next analyzed the time-course of the p53-mSin3a interaction following exposure of cells to the DNA damaging agent adriamycin (doxorubicin). Both p53-mSin3a and p53 p300 complexes were monitored by IP-western analysis in a time course following adriamycin treatment of MCF-7 cells. As a control, p53 was immunoprecipitated using polyclonal antisera generated against full-length p53 (Santa Cruz Biotechnology). p53 levels were also assessed at each time point by western analyses (data not shown). […]

Vm10 cells [2] = test: AMC caspase assay specific for caspase 3 (apoptosis); assay type: cell-based, murine
Experimental: Apoptosis was quantitated using the AMC caspase assay specific for caspase 3 (Pharmingen). Vm10 cells were grown at 39 degrees or temperature-shifted to 32 degrees for 24 hours in the presence or absence of 100 nM trichostatin A (TSA). Vm10 cells at 39 degrees were treated with staurosporine (Calbiochem) at 100 nM, or dilution vehicle (dimethyl sulfoxide), or tumor necrosis factor alpha plus cycloheximide (10 ng/mL TNFα, RD Systems, plus 40 ug/mL cycloheximide, Sigma). Cells were harvested, lysed, and lysate was monitored for the caspase-3-dependent hydrolysis of the fluorogenic substrate Ac-DEVD-AMC, according to protocols derived from the manufacturer (Pharmingen). As a control for non-specific proteolysis, lysates from 39 degrees and 32 degrees were also assayed in the presence of the caspase-3 inhibitor Ac-DEVD-CHO (N-acetyl-Asp-Glu-Val Asp-aldehyde, Pharmingen). Fluorescence emissions were quantified on a spectrofluorometer (VersaFluor Cuvette Fluorometer) with excitation wavelength of 360 nm. and emission of 460 nm. The data presented represent duplicate readings of the averaged values from two (TNFα and staurosporine) or three (temperature shift) independent experiments.
In order to assess the contribution of p53-mediated repression to apoptosis, we utilized the cell line Vm10. This murine cell line contains a stably-transfected p53 gene encoding a temperature-sensitive protein, as well as a constitutively expressed c-myc proto-oncogene; the characteristics of this line, and its ability to undergo apoptosis at 32 degrees, have been described (Chen et al., Mol Med 1:142–152, 1996). Temperature shift and wt p53 induction of these cells results in a significant increase in caspase-3 dependent AMC-DEVD hydrolysis, a read-out for apoptosis, as measured in a spectrofluorometric assay. […] Therefore, the ability of TSA to inhibit apoptosis is specific for p53-dependent apoptosis.

Va15 cells [3] = test: Northern analysis of Map4 mRNA after p53 induction by temperature shift; assay type: cell-based, murine; conditions: temperature shift to 32 degrees (wt p53), 100 nM TSA
Experimental: as §1
Total RNA was isolated from cells using CsC1 purification (Murphy et al., Genes & Devel. 10:2971–2980, 1996) or using Trizol, as per the manufacturer (Gibco/BRL). Northern analyses were performed as described (Murphy et al., Genes & Devel. 10:2971–2980, 1996). […] Autoradiographs were quantitated using NIH image software. […]

[4] = system: H1299 human lung adenocarcinoma; test: Northern analysis of stathmin mRNA in p53-null cells; assay type: cell-based; conditions: H1299, null for p53
Va15 cells [5] = test: Flow cytometric analysis of cell cycle distribution; assay type: cell-based, murine; conditions: Va15 cells cultured at 32 degrees, TSA treatment, data not shown
Vm10 cells [6] = test: Flow cytometry of sub-G1 population; assay type: cell-based, murine; conditions: Vm10 at 32 degrees (wt p53), 100 nM TSA, data not shown
MCF-7 cells [7] = test: Northern analysis of stathmin mRNA after adriamycin treatment; assay type: cell-based, human
Experimental: as §1
(§2) Total RNA was isolated from cells using CsC1 purification (Murphy et al., Genes & Devel. 10:2971–2980, 1996) or using Trizol, as per the manufacturer (Gibco/BRL). Northern analyses were performed as described (Murphy et al., Genes & Devel. 10:2971–2980, 1996). Probes for Northerns were radio labeled using random primers (Prime-It-II, Stratagene) and α^32P dCTP (NEN). Autoradiographs were quantitated using NIH image software. The average values from three independent experiments were plotted onto bar graphs following normalization to GAPDH.
(§3) To extend these observations, the human tumor derived cell lines MCF7 (breast carcinoma)and A2780 (ovarian carcinoma) were analyzed following treatment with adriamycin to activate the endogenous, wild type p53 protein. Because of difficulties detecting human Map4 message, we analyzed the mRNA levels of stathmin (also called oncoprotein 18). We recently identified stathmin as a p53-repressed gene. A time course of treatment of MCF-7 cells with the DNA-damaging agent adriamycin (doxorubicin, DOX) results in approximately 30% reduction of stathmin RNA levels after 8 hours and 75% reduction after 24 hours. We chose to focus further on the 12 hour timepoint of adriamycin treatment, where 50% repression of stathmin was evident, in order to limit the toxicity sometimes associated with TSA (Yoshida et al., J Biol Chem 265:17174–17179, 1990). […] The results of three independent experiments indicate that the repression of stathmin expression evident after 12 hours of adriamycin treatment is completely abrogated by incubation with TSA. In contrast, neither the post-translational stabilization of p53 by adriamycin (DOX) nor the induction of the p53 response genes mdm2 and p21/waf1 were affected by TSA. […] We have performed identical experiments in A2780 cells (ovarian carcinoma, wt p53).

A2780 cells = test: as above; assay type: cell-based, human; conditions: A2780, co-incubation with TSA, data not shown
Experimental: as §1, §2, §3

Va15 cells [8] = test: Western analysis of survivin in nocodazole-arrested cells; assay type: cell-based, murine; conditions: Va15 at 39 degrees, nocodazole alone, twenty-four hours
Experimental: Western analysis was performed essentially as described (Murphy et al., 1999). Briefly, subconfluent cells were harvested and lysed in RIPA buffer (50 mM Tris at pH 7.4, 150 mM NaCl, 1% Triton X-100, 0.1% SDS, and 1% sodium deoxycholate) supplemented with protease inhibitors (1 mM PMSF, […], […], and […]). Protein concentrations were determined using the Bio-Rad Dc Protein Assay (Bio-Rad). Equal amounts of protein (between 50 and 120 ugs) were run on 10% or 12% SDS-polyacrylamide gels and transferred overnight onto PVDF membrane (Bio-Rad). Western blots were incubated in antibody in 5% nonfat dry milk in phosphate-buffered saline supplemented with 0.2% Tween 20 (PBST). Blots were incubated with primary antibody at the following dilutions: p53 Ab-6 (Calbiochem) 1:1000, actin, AC-15 (Sigma) at 1:5000, p21/waf1 (Calbiochem) 1:1000 and survivin (Novus) 1:1000. Blots were washed with PBST and incubated in horseradish peroxidase-linked secondary antibody (Jackson ImmunoResearch Laboratories) and developed via the chemiluminescence protocol provided by the manufacturer (NEN).
Va15 cells (temperature-sensitive p53 which is wild type at 32 degrees) were grown at 39 degrees (mutant p53, asynchronous growth), and arrested in G2/M following twenty-four hours of nocodazole treatment. […]

CCCC[C@@H](C=O)NC(=O)[C@H](CC(C)C)NC(=O)[C@H](CC(C)C)NC(C)=O [ALLN] (Ac-Leu-Leu-[Nle]-aldehyde)
increase in p53 protein (MCF-7 cells [1]): approximately 4 fold
increase in the p53-mSin3a complex (MCF-7 cells [1]): undetectable increase in the p53-mSin3a complex

N-acetyl-Asp-Glu-Val Asp-aldehyde [Ac-DEVD-CHO]
AMC cleavage in lysate with caspase-3 inhibitor added (Vm10 cells [2]; Vm10 lysate, addition of Ac-DEVD-CHO): negligible AMC cleavage

CC(/C=C/C(=O)NO)=C\[C@@H](C)C(=O)c1ccc(N(C)C)cc1 [TSA, trichostatin A]
Map4 RNA levels, % of starting levels (Va15 cells [3]): approximately 80%
effect on stathmin levels [4]: neither TSA nor adriamycin had any effect on stathmin levels
cell cycle distribution (Va15 cells [5]): did not alter the cell cycle distribution
sub-G1 population (Vm10 cells [6]): reduces the sub-G1 population
effect on stathmin levels, TSA alone (MCF-7 cells [7]; MCF-7, 100 nM TSA alone): undetectable effects on stathmin levels
effect on reduction of stathmin levels following adriamycin treatment (MCF-7 cells [7]; MCF-7, 100 nM TSA plus adriamycin 12 hours): completely abrogate the reduction of stathmin levels
effect on adriamycin-induced repression of stathmin (A2780 cells): abrogate completely this repression
inhibition of caspase-3-dependent AMC hydrolysis (Vm10 cells [2]; Vm10 at 32 degrees (wt p53), 100 nM TSA, 24 hours): greater than 4 fold
inhibition of apoptosis induced by staurosporine or tumor necrosis factor alpha (Vm10 cells [2]; Vm10 at 39 degrees (mutant p53), TSA treatment): unable to significantly inhibit apoptosis

COC(=O)Nc1nc2ccc(C(=O)c3cccs3)cc2[nH]1 [nocodazole]
survivin expression (Va15 cells [8]): increased survivin expression
